According to ChEMBL document CHEMBL1133758, “Docking-based development of purine-like inhibitors of cyclin-dependent kinase-2” (J Med Chem, 2000):

What was measured:
[1] = target: Cyclin-dependent kinase 2 (Homo sapiens, UniProt P24941); experiment: Inhibition of Cyclin-dependent kinase 2
[2] = target: Cyclin-dependent kinase 1 (Homo sapiens, UniProt P06493); experiment: Inhibition of Cyclin-dependent kinase 1
Sequence of Cyclin-dependent kinase 1 (P06493 whole entry): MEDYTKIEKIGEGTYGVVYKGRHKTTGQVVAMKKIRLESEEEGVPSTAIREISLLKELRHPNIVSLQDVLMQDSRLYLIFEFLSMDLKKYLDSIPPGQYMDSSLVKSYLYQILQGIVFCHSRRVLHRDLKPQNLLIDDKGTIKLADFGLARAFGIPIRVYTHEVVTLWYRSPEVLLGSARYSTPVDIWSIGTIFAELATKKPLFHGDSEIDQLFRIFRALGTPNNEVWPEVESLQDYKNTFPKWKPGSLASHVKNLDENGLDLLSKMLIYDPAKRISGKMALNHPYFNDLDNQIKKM

SMILES	IC50 [1]	IC50 [2]
CC(C)n1cnc2c(NCc3ccccc3)nc(NC[C@@H](C)O)nc21	0.2 µM	–
CC(C)n1cnc2c(NC3CCCC3)nc(NCCCO)nc21	0.9 µM	2.4 µM
CC(C)C(CO)Nc1nc(NCc2cccc(O)c2)c2ncn(C(C)C)c2n1 (stereo unspecified)	0.03 µM	–
CC(C)n1cnc2c(NC34CC5CC(CC(C5)C3)C4)nc(NCCCO)nc21	> 100 µM	> 100 µM
CC(C)n1cnc2c(NCc3ccccc3)ncnc21	4.5 µM	3.5 µM
CC(C)n1cnc2c(N)nc(NCCCO)nc21	2.4 µM	10 µM
CC(C)n1cnc2c(NCc3ccccc3)nc(NCCCO)nc21 [BOHEMINE]	0.8 µM	–
